Source: US9073821B2, “Hydroxamic acid derivative” (priority 2010, dated 2015)
Converted amounts (≈) assume the structure as drawn. Where two headings read alike, the source gives them in different places.

Legend:
[1] = system: Pseudomonas aeruginosa strain TS88 (clinical isolate); experiment: Antimicrobial activity, MIC by broth microdilution; format: cell-based; conditions: Table 4, 35° C., 18 hours, read-out: Pseudomonas aeruginosa TS88 strain MIC
Text: (§1) Test 3: Evaluation of Antimicrobial Activity For minimum inhibitory concentration (MIC) measurement, the following broth microdilution method was applied as adapted from the standard procedure recommended by the CLSI (Clinical and Laboratory Standards Institute). The bacteria used were Pseudomonas aeruginosa strain TS88 (clinical isolate), E. coli strain ATCC25922, and Klebsiella pneumoniae strain ATCC13883. After culture overnight on a heart infusion agar medium, the cells of a test bacterium were scraped off and suspended to give a turbidity of level 0.5 on the McFarland scale; the suspension was then diluted 10 fold to prepare an inoculum solution. A 0.005 mL aliquot of the inoculum solution was inoculated in a cation-adjusted Mueller-Hinton broth medium containing a test compound and cultured at 35° C. for 18 hours. A minimum drug concentration at which no cell growth was visible to the naked eye was designated as MIC.

[2] = system: E. coli strain ATCC25922; experiment: Antimicrobial activity, MIC by broth microdilution; format: cell-based; conditions: Escherichia coli, Table 4, 35° C., 18 hours, read-out: E. coli ATCC 25922 strain MIC
Text: as §1

[3] = system: Klebsiella pneumoniae strain ATCC13883; experiment: Antimicrobial activity, MIC by broth microdilution; format: cell-based; conditions: Table 4, 35° C., 18 hours, read-out: Klebsiella pneumoniae ATCC 13883 strain MIC
Text: as §1

[4] = target: E. coli LpxC enzyme (Escherichia coli (strain K12), UniProt P0A725); experiment: Inhibitory activity on E. coli LpxC enzyme (fluorescamine assay); format: biochemical; conditions: Table 4
Method: Test 2: Evaluation of the Inhibitory Activity on E. coli LpxC Enzyme
An inhibition curve was constructed for each test compound by performing the aforementioned reaction at varying concentrations of the test compound. From this inhibition curve, the concentration of the test compound at which the formation of the reaction product was suppressed by 50% was determined as the IC50 of the test compound, which was an index for the inhibitory activity on E. coli LpxC enzyme.

[5] = target: Pseudomonas aeruginosa LpxC enzyme (Pseudomonas aeruginosa (strain ATCC 15692 / DSM 22644 / CIP 104116 / JCM 14847 / LMG 12228 / 1C / PRS 101 / PAO1), UniProt P47205); experiment: biochemical; format: biochemical
[6] = Table 4, read-out: Pseudomonas aeruginosa LpxC IC50
[7] = inhibitory activity on Pseudomonas aeruginosa LpxC enzyme, class symbols A/B/C, read-out: Enzyme inhibitory activity
[8] = class symbols A/B/C by IC50, Table 3, read-out: Enzyme inhibitory activity (inhibitory activity on Pseudomonas aeruginosa LpxC enzyme)

E. coli LpxC enzyme, sequence (P0A725 whole entry): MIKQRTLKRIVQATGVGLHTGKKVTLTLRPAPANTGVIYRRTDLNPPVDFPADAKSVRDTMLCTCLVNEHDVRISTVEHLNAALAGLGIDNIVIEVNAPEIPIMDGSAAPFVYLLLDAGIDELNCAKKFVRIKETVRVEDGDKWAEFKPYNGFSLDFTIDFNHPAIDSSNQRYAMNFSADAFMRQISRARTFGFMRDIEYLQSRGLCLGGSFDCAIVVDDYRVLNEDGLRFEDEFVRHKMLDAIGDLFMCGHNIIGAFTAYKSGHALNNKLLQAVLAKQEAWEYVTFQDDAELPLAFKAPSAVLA

CNC(=O)[C@@](C)(C(=O)NO)N(C)C(=O)c1ccc(C#Cc2ccc(CN3CC(C)(OC)C3)cc2)cc1 [Compound 558, (2S)-N-hydroxy-2-[{[4-({4-[(3-methoxy-3-methylazetidin-1-yl)methyl]phenyl}ethynyl)phenyl]carbonyl}(methyl)amino]-N′,2-dimethylpropanediamide]
MIC [1]: 1 mg/L (≈ 2.03 µM)
MIC [2]: 0.5 mg/L (≈ 1.02 µM)
MIC [3]: 2 mg/L (≈ 4.06 µM)
IC50 [4]: 0.235 µM

CCOc1ccc(-c2ccc(C(=O)N(C)C(C(=O)NC)C(=O)NO)cc2)cc1 (centres unmarked) [Compound 211, 2-{[(4′-ethoxybiphenyl-4-yl)carbonyl](methyl)amino}-N-hydroxy-N′-methylpropanediamide]
IC50 [5, 6]: 0.0031 µM
IC50 [5, 7]: < 0.01 µM
MIC [1]: 0.5 mg/L (≈ 1.3 µM)
MIC [2]: 1 mg/L (≈ 2.59 µM)
MIC [3]: 8 mg/L (≈ 20.8 µM)
IC50 [4]: 0.109 µM

CNC(=O)[C@@](C)(C(=O)NO)N(C)C(=O)c1ccc(C#Cc2coc(CNC3CC3)c2)cc1 [Compound 585, (2S)-2-[{[4-({5-[(cyclopropylamino)methyl]furan-3-yl}ethynyl)phenyl]carbonyl}(methyl)amino]-N-hydroxy-N′,2-dimethylpropanediamide]
IC50 [5, 6]: 0.0034 µM
IC50 [5, 8]: < 0.01 µM
MIC [1]: 0.5 mg/L (≈ 1.14 µM)
MIC [2]: 0.5 mg/L (≈ 1.14 µM)
MIC [3]: 1 mg/L (≈ 2.28 µM)
IC50 [4]: 0.088 µM

CNC(=O)[C@@](C)(C(=O)NO)N(C)C(=O)c1ccc(-c2ccc3c(ccn3C)c2)cc1 [Compound 402, (2S)-N-hydroxy-N′,2-dimethyl-2-(methyl {[4-(1-methyl-1H-indol-5-yl)phenyl]carbonyl}amino)propanediamide]
MIC [1]: 1 mg/L (≈ 2.45 µM)
MIC [2]: 0.125 mg/L (≈ 0.306 µM)
MIC [3]: 1 mg/L (≈ 2.45 µM)
IC50 [4]: 0.0049 µM

CNC(=O)[C@@](C)(C(=O)NO)N(C)C(=O)c1ccc(CCc2ccc(CN3CCOCC3)cc2)cc1 [Compound 425, (2S)-N-hydroxy-N′,2-dimethyl-2-{methyl[(4-{2-[4-(morpholin-4-ylmethyl)phenyl]ethyl}phenyl)carbonyl]amino}propanediamide]
IC50 [5, 6]: 0.0051 µM
IC50 [5, 7]: < 0.01 µM
MIC [1]: 8 mg/L (≈ 16.6 µM)
MIC [2]: 2 mg/L (≈ 4.14 µM)
MIC [3]: 8 mg/L (≈ 16.6 µM)
IC50 [4]: 0.121 µM

CNC(=O)C(C(=O)NO)N(C)C(=O)c1ccc(/C=C/C#Cc2ccc(CNC3CC3)cc2)cc1 (centres unmarked) [Compound 477, 2-[({4-[(1E)-4-{4-[(cyclopropylamino)methyl]phenyl}but-1-en-3-yn-1-yl]phenyl}carbonyl)(methyl)amino]-N-hydroxy-N′-methylpropanediamide]
IC50 [5, 6]: 0.0043 µM
IC50 [5, 7]: < 0.01 µM
MIC [1]: 0.5 mg/L (≈ 1.09 µM)
MIC [2]: 0.25 mg/L (≈ 0.543 µM)
MIC [3]: 1 mg/L (≈ 2.17 µM)
IC50 [4]: 0.033 µM

CCOC1CN(Cc2ccc(C#Cc3ccc(C(=O)N(C)[C@@](C)(C(=O)NC)C(=O)NO)cc3)cc2)C1 [Compound 557, (2S)-2-[{[4-({4-[(3-ethoxyazetidin-1-yl)methyl]phenyl}ethynyl)phenyl]carbonyl}(methyl)amino]-N-hydroxy-N′,2-dimethylpropanediamide]
IC50 [5, 6]: 0.0023 µM
IC50 [5, 8]: < 0.01 µM
MIC [1]: 0.5 mg/L (≈ 1.02 µM)
MIC [2]: 0.25 mg/L (≈ 0.508 µM)
MIC [3]: 1 mg/L (≈ 2.03 µM)
IC50 [4]: 0.108 µM

CNC(=O)[C@@](C)(C(=O)NO)N(C)C(=O)c1ccc(C#Cc2ccc(CN3CC(OC)C3)cc2)cc1 [Compound 567, (2S)-N-hydroxy-2-[{[4-({4-[(3-methoxyazetidin-1-yl)methyl]phenyl}ethynyl)phenyl]carbonyl}(methyl)amino]-N′,2-dimethylpropanediamide]
MIC [1]: 1 mg/L (≈ 2.09 µM)
MIC [2]: 0.5 mg/L (≈ 1.04 µM)
MIC [3]: 2 mg/L (≈ 4.18 µM)
IC50 [4]: 0.177 µM

CNC(=O)[C@@](C)(C(=O)NO)N(C)C(=O)c1ccc(C#Cc2ccc(CN3CCCOCC3)cc2)cc1 [Compound 376, (2S)-N-hydroxy-N′,2-dimethyl-2-[methyl(4-{[4-(1,4-oxazepan-4-ylmethyl)phenyl]ethynyl}benzoyl)amino]propanediamide]
IC50 [5, 6]: 0.002 µM
IC50 [5, 7]: < 0.01 µM
MIC [1]: 0.5 mg/L (≈ 1.02 µM)
MIC [2]: 0.25 mg/L (≈ 0.508 µM)
MIC [3]: 1 mg/L (≈ 2.03 µM)
IC50 [4]: 0.129 µM

CCOc1ccc(-c2ccc(C(=O)N(C)[C@@](C)(C(=O)NC)C(=O)NO)cc2)cc1 [Compound 399, (2S)-2-{[(4′-ethoxybiphenyl-4-yl)carbonyl](methyl)amino}-N-hydroxy-N′,2-dimethylpropanediamide]
MIC [1]: 0.5 mg/L (≈ 1.25 µM)
MIC [2]: 0.125 mg/L (≈ 0.313 µM)
MIC [3]: 0.5 mg/L (≈ 1.25 µM)
IC50 [4]: 0.013 µM

CNC(=O)[C@@](C)(C(=O)NO)N(C)C(=O)c1ccc(C#Cc2ccc(CN3CCOCC3)cc2)cc1 [Compound 561, (2S)-N-hydroxy-N′,2-dimethyl-2-{methyl[(4-{[4-(morpholin-4-ylmethyl)phenyl]ethynyl}phenyl)carbonyl]amino}propanediamide]
MIC [1]: 0.5 mg/L (≈ 1.04 µM)
MIC [2]: 0.125 mg/L (≈ 0.261 µM)
MIC [3]: 0.5 mg/L (≈ 1.04 µM)
IC50 [4]: 0.03 µM

CNC(=O)[C@@](C)(C(=O)NO)N(C)C(=O)c1ccc(/C=C/c2ccc(CN3CCOCC3)cc2)cc1 [Compound 434, (2S)-N-hydroxy-N′,2-dimethyl-2-{methyl[(4-{(E)-2-[4-(morpholin-4-ylmethyl)phenyl]ethenyl}phenyl)carbonyl]amino}propanediamide]
IC50 [5, 6]: 0.0028 µM
IC50 [5, 7]: < 0.01 µM
MIC [1]: 1 mg/L (≈ 2.08 µM)
MIC [2]: 0.25 mg/L (≈ 0.52 µM)
MIC [3]: 1 mg/L (≈ 2.08 µM)
IC50 [4]: 0.055 µM

CNC(=O)[C@@](C)(C(=O)NO)N(C)C(=O)c1ccc(C#Cc2ccc(CNC3COC3)cc2)cc1 [Compound 396, (2S)-N-hydroxy-N′,2-dimethyl-2-(methyl{[4-({4-[(oxetan-3-ylamino)methyl]phenyl}ethynyl)phenyl]carbonyl}amino)propanediamide]
IC50 [5, 6]: 0.0031 µM
IC50 [5, 7]: < 0.01 µM
MIC [1]: 2 mg/L (≈ 4.31 µM)
MIC [2]: 0.5 mg/L (≈ 1.08 µM)
MIC [3]: 2 mg/L (≈ 4.31 µM)
IC50 [4]: 0.046 µM

CNC(=O)C(C)(C(=O)NO)N(C)C(=O)c1ccc(C#Cc2coc(COC)c2)cc1 (centres unmarked) [Compound 528, N-hydroxy-2-{[(4-{[5-(methoxymethyl)furan-3-yl]ethynyl}phenyl)carbonyl](methyl)amino}-N′,2-dimethylpropanediamide]
IC50 [5]: < 0.01 µM
IC50 [5, 6]: 0.0048 µM
MIC [1]: 0.5 mg/L (≈ 1.21 µM)
MIC [2]: 0.25 mg/L (≈ 0.605 µM)
MIC [3]: 2 mg/L (≈ 4.84 µM)
IC50 [4]: 0.025 µM

CNC(=O)C(C(=O)NO)N(C)C(=O)c1ccc(C#C/C=C/c2ccc(CNC3CC3)cc2)cc1 (centres unmarked) [Compound 481, 2-[({4-[(3E)-4-{4-[(cyclopropylamino)methyl]phenyl}but-3-en-1-yn-1-yl]phenyl}carbonyl)(methyl)amino]-N-hydroxy-N′-methylpropanediamide]
IC50 [5, 6]: 0.0091 µM
IC50 [5, 7]: < 0.01 µM
MIC [1]: 1 mg/L (≈ 2.17 µM)
MIC [2]: 0.25 mg/L (≈ 0.543 µM)
MIC [3]: 2 mg/L (≈ 4.34 µM)
IC50 [4]: 0.078 µM

CNC(=O)[C@@](C)(C(=O)NO)N(C)C(=O)c1ccc(C#Cc2ccc(CCN3CCOCC3)cc2)cc1 [Compound 410, (2S)-N-hydroxy-N′,2-dimethyl-2-(methyl {[4-({4-[2-(morpholin-4-yl)ethyl]phenyl}ethynyl)phenyl]carbonyl}amino)propanediamide]
MIC [1]: 1 mg/L (≈ 2.03 µM)
MIC [2]: 0.25 mg/L (≈ 0.508 µM)
MIC [3]: 1 mg/L (≈ 2.03 µM)
IC50 [4]: 0.078 µM

CNC(=O)[C@@](C)(C(=O)NO)N(C)C(=O)c1ccc(C#Cc2ccc(CNCCF)cc2)cc1 [Compound 554, (2S)-2-[({4-[(4-{[(2-fluoroethyl)amino]methyl}phenyl)ethynyl]phenyl}carbonyl)(methyl)amino]-N-hydroxy-N′,2-dimethylpropanediamide]
MIC [1]: 0.5 mg/L (≈ 1.1 µM)
MIC [2]: 0.5 mg/L (≈ 1.1 µM)
MIC [3]: 1 mg/L (≈ 2.2 µM)
IC50 [4]: 0.12 µM

CNC(=O)C(C(=O)NO)N(C)C(=O)c1ccc(-c2ccc(C#CCOC)cc2)cc1 (centres unmarked) [Compound 405, N-hydroxy-2-[{[4′-(3-methoxyprop-1-yn-1-yl)biphenyl-4-yl]carbonyl}(methyl)amino]-N′-methylpropanediamide]
IC50 [5, 6]: 0.0029 µM
IC50 [5, 7]: < 0.01 µM
MIC [1]: 0.5 mg/L (≈ 1.22 µM)
MIC [2]: 0.5 mg/L (≈ 1.22 µM)
MIC [3]: 4 mg/L (≈ 9.77 µM)

CCOC1CN(Cc2ccc(C#Cc3ccc(C(=O)N(C)C(C(=O)NC)C(=O)NO)cc3)cc2F)C1 (centres unmarked) [Compound 563, 2-[{[4-({4-[(3-ethoxyazetidin-1-yl)methyl]-3-fluorophenyl}ethynyl)phenyl]carbonyl}(methyl)amino]-N-hydroxy-N′-methylpropanediamide]
IC50 [5, 8]: < 0.01 µM
MIC [1]: 1 mg/L (≈ 2.01 µM)
MIC [2]: 1 mg/L (≈ 2.01 µM)
MIC [3]: 4 mg/L (≈ 8.06 µM)

CNC(=O)C(C(=O)NO)N(C)C(=O)c1ccc(C#CC#CC2CC2)cc1 (centres unmarked) [Compound 507, 2-({[4-(4-Cyclopropylbuta-1,3-diyn-1-yl)phenyl]carbonyl}(methyl)amino)-N-hydroxy-N′-methylpropanediamide]
MIC [1]: 0.25 mg/L (≈ 0.707 µM)
MIC [2]: 0.125 mg/L (≈ 0.354 µM)
MIC [3]: 1 mg/L (≈ 2.83 µM)
IC50 [4]: 0.012 µM
